Assay results from patent US11571437B2, “Methods of treating cancer using PRMT5 inhibitors” (Janssen Pharmaceutica NV, priority 2019, dated 2023).

Legend:
[1] = test system: NCI H1048 human SCLC xenografts; experiment: second NCI-H1048 human SCLC mouse xenograft study, 10 days dosing and 10 days regrowth observation; type: in vivo, mice; conditions: 10 mg/kg oral gavage for 10 days
PRMT5/MEP50 complex = PRMT5/MEP50 complex (Homo sapiens, UniProt O14744); experiment: in vitro thermal shift experiments; type: binding
Text: (§1) This unique mode-of-binding translates into very potent and time-dependent PRMT5 enzyme inhibition.

various solid tumors = experiment: Phase 1 open-label study Part 1: preliminary clinical activity (RECIST); type: in vivo, human
Text: (§2) This is a multi-part, Phase 1, open-label, multicenter study to evaluate the safety, pharmacokinetics, pharmacodynamics, and preliminary clinical activity of JNJ-64619178 monotherapy administered either to adult human subjects with advanced solid tumors or B cell non-Hodgkin lymphomas who previously received or are ineligible for standard treatment options, or to adult subjects with lower risk myelodysplastic syndromes (MDS) who are red blood cell (RBC) transfusion-dependent and relapsed or refractory to erythropoiesis-stimulating agent (ESA) treatment.
(§3) Fifty-four (54) participants with various solid tumors (e.g., breast cancer, prostate cancer, salivary duct carcinoma, adenoid cystic carcinoma, and uveal melanoma) were dosed in the “Part 1” study described below with JNJ-64619178 at 0.5 mg (1st cohort), 1 mg (2nd cohort), 2 mg (3rd cohort), 4 mg (4th cohort), and 3 mg (5th cohort) under a schedule of 14 days continuous dose administration followed by a 7-day rest period (14 days on/7 days off in a 21-day cycle); or at 1 mg (6th cohort) or 2 mg (7th cohort) under a schedule of 21 days continuous dosing. Average treatment duration was 3 months, with a range of 0.4 to 22.4 months. […] The maximum tolerated dose was considered 3 mg on the 14 days on/7 days off schedule or 2 mg on the continuous dosing schedule. […] The participant with confirmed PR was from cohort 2.
(§4) Two provisional RP2Ds were selected: 1.5 mg intermittently and 1 mg QD.

plasma SDMA = experiment: Phase 1 open-label study Part 1: target engagement by plasma SDMA; type: in vivo, human; conditions: even with intermittent dosing
Procedure: as §4

NCI-H1048 xenografts = experiment: NCI-H1048 xenograft, continuous versus 7+/7- dosing (Study 3); type: in vivo, mice; conditions: 10 mg/kg once daily oral, at day 28
Procedure: FIG. 4 is a line graph showing extended tumor growth inhibition using a dosing cessation of the compound of the disclosure in the NCI-H1048 tumor model at a JNJ64619178 dosage of 10 mg/kg for either 28 consecutive days or for two cycles of 7 daily drug treatment followed by 7 days dosing holidays (7+/7 −, 2 cycles).
In all xenografts studies, the average tumor volume at treatment initiation was about 150 mm^3 and mean tumor volumes (mm^3)±SEM of each group were graphed over time as indicated in FIG. 4.

[2] = test system: NCI-H1048 human xenograft model of SCLC; experiment: NCI-H1048 human SCLC xenograft, once daily oral dosing up to 28 days (Study 1); type: in vivo, mice
Procedure: JNJ-64619178 was tested for antitumor activity in the NCI-H1048 human xenograft model of SCLC. Male mice were subcutaneously implanted with NCI-H1048 cells, and tumors were allowed to grow for 14 days, reaching 174±51 mm^3 in volume, when treatment was started. Mice were administered once daily oral doses of JNJ-64619178 at 1, 3, and 10 mg/kg or 20% hydroxypropyl-β-cyclodextrin (HP-β-CD) vehicle control for up to 28 days.
FIG. 1 details the individual tumor regrowth observed following cessation of once daily treatment with 10 mg/kg JNJ 64619178 or vehicle control. In all 8 mice treated with 10 mg/kg JNJ 64619178, tumor regrowth began approximately 14 days after cessation of dosing, with tumors reaching ethical limits by Day 92 postimplantation.

[3] = Phase 1 open-label study Part 1: safety and tolerability; type: in vivo, human
Text: as §2
Fifteen (15) participants with various solid tumors (e.g., breast cancer, prostate cancer, salivary duct carcinoma, adenoid cystic carcinoma) were dosed in the “Part 1” study described below with JNJ-64619178 at 0.5 mg (1′ cohort), 1 mg (2nd cohort), 2 mg (3rd cohort) and 4 mg (4th cohort) under a schedule of 14 days continuous dose administration followed by a 7-day rest period (14 days on/7 days off in a 21-day cycle). Average treatment duration ranged from 4 weeks in the 4th cohort (4 mg 14 days on/7 days off) to 6 months in the 2nd cohort (1 mg 14 days on/7 days off). […] The Part 1 study is ongoing.
as §3
The JNJ-64619178 starting dose is based on toxicology results obtained using no observed adverse effect level (NOAEL) dose, more conservative than the highest non-severely toxic dose (HNSTD) in the dog as the most sensitive species. Using a default safety factor of 6 (used for HNSTD in non-rodents), a starting dose of 0.54 mg once daily (QD) was obtained, which was rounded to 0.5 mg QD. A single dose of the study drug will be administered in the pharmacokinetic run-in phase for Part 1. During the treatment phase, the study drug will be administered for 14 consecutive days followed by 7 days of rest (14 days on/7 days off dose administration) on a 21 day cycle. Alternative dosing schedules (e.g., continuous dosing, 7 days on/7 days off, and 7 days on/14 days off) are also evaluated.
The study was initiated with dose Schedule A (14 days on/7 days off dose administration on a 21-day cycle). Table B below provides an example of possible dose escalation.

[4] = Phase 1 open-label study Part 1: plasma pharmacokinetics; type: in vivo; conditions: human plasma, oral capsules
Procedure: as §4
The pharmacokinetic run-in phase will evaluate the single-dose pharmacokinetics of JNJ 64619178 prior to subsequent daily dose administration in the treatment phase. Subjects will be administered a single-dose of study drug at the site on Day 1 and remain at site for at least 6 hours for pharmacokinetic assessments. The single-dose of study drug will be followed by a 6 day rest period (i.e., Days 2 to 7 [a range of 5 to 10 days is allowed]) during which pharmacokinetic blood sample and ECG collection will be conducted. Certain subjects in Part 1 may not participate in the pharmacokinetic run-in phase.
The treatment phase begins on Cycle 1 Day 1 with the administration of the study drug and continues until the completion of the end-of-treatment visit. During the treatment phase, multiple-dose pharmacokinetics of JNJ-64619178 will be evaluated. On Cycle 1 Day 14, subjects in Part 1 will remain at site for at least 8 hours after the study drug administration for pharmacokinetic and ECG assessments. Study drug should be administered at approximately the same time each day for accurate evaluation of the pharmacokinetics of JNJ 64619178.

PRMT5/MEP50 = PRMT5/MEP50 (Homo sapiens, UniProt O14744); experiment: surface plasmon resonance binding studies
Text: as §1

Sequence of PRMT5/MEP50 (O14744 whole entry): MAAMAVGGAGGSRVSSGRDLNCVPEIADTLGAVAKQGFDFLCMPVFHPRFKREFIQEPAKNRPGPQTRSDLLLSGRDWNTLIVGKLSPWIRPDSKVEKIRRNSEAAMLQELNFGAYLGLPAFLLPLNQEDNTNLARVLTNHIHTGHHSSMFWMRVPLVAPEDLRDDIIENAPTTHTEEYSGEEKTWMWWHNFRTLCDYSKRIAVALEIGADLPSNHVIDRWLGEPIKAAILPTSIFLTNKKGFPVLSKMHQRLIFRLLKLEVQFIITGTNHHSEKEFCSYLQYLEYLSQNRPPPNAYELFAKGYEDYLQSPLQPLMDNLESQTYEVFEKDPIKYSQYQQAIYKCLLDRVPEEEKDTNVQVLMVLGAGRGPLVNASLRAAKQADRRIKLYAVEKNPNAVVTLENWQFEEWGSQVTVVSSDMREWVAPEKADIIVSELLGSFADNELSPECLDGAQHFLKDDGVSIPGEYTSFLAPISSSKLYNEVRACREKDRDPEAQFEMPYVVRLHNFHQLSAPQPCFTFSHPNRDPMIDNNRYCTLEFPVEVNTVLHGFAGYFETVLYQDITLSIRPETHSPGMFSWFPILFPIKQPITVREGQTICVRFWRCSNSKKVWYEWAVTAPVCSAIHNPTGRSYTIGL
Sequence of PRMT5/MEP50 (Q9BQA1 whole entry partner): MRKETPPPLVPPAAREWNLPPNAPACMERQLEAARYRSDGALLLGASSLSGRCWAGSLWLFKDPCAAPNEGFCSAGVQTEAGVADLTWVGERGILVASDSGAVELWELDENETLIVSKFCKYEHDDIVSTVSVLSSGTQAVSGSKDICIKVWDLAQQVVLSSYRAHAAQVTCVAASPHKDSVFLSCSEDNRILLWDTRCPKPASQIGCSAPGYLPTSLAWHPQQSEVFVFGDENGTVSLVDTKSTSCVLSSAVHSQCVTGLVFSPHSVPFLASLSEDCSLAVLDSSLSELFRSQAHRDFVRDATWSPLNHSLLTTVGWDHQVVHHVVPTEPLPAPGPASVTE
Sequence of PRMT5/MEP50 complex (O14744 whole entry): as the sequence (O14744 whole entry) above
Sequence of PRMT5/MEP50 complex (Q9BQA1 whole entry partner): as the sequence (Q9BQA1 whole entry partner) above

SMILES: Nc1nc2cc(CC[C@H]3C[C@@H](n4ccc5c(N)ncnc54)[C@H](O)[C@@H]3O)ccc2cc1Br [JNJ-64619178, (1S,2R,3S,5R)-3-(2-(2-amino-3-bromoquinolin-7-yl)ethyl)-5-(4-amino-7H-pyrrolo[2,3-d]pyrimidin-7-yl)cyclopentane-1,2-diol]
- tumor growth inhibition (TGI) [1]: up to 72.9%
- additional stabilization of the PRMT5/MEP50 complex in comparison to SAM binding (PRMT5/MEP50 complex): 12 degrees Celsius
- best overall response: confirmed partial response (various solid tumors; 1 of 45 participants evaluable for efficacy, from cohort 2): 4.3%
- best overall response: progressive disease (various solid tumors; 20 of 45 participants evaluable for efficacy): 43%
- best overall response: stable disease (various solid tumors; 24 of 45 participants evaluable for efficacy): 52%
- response (RECIST) in ACC (various solid tumors; adenoid cystic carcinoma): confirmed partial response
- duration of stable disease (various solid tumors; patients with ACC, prostate cancer, salivary gland carcinomas, and other tumor types): greater than 6 months
- target engagement as measured by plasma SDMA (plasma SDMA): Robust target engagement
- tumor growth inhibition (TGI) compared to vehicle (NCI-H1048 xenografts; 28 consecutive days): 62%
- tumor growth inhibition (TGI) compared to vehicle (NCI-H1048 xenografts; two cycles of 7 days on/7 days off (7+/7-)): 63%
- time complete regression was maintained postdose ([2]; 10 mg/kg once daily oral): up to 14 days
- tumor regression ([2]; 10 mg/kg once daily oral): complete regression of tumors
- tumor growth inhibition (TGI) ([2]; 10 mg/kg once daily oral, Day 42 postimplantation, vs vehicle control): 99.1%
- start of tumor regrowth after cessation of dosing ([2]; 10 mg/kg once daily, all 8 mice): approximately 14 days
- antitumor activity (statistical significance) compared with vehicle control ([2]; 1, 3, and 10 mg/kg once daily oral): statistically significant antitumor activity
- antitumor activity (biological significance) ([2]; 3 and 10 mg/kg once daily oral): biologically significant antitumor activity
- maximum tolerated dose ([3]; 14 days on/7 days off schedule): 3 mg
- maximum tolerated dose ([3]; continuous dosing schedule): 2 mg
- dose-limiting toxicities ([3]; human, in vivo): thrombocytopenia of Grade 4 or of Grade 3 lasting longer than 7 days
- grade of non-hematologic toxicities ([3]; human, in vivo): Grade 1 or 2 except for one case of Grade 3 vomiting lasting 24 hours
- adverse events observed in >20% of participants ([3]; in vivo): gastrointestinal disorders (nausea, vomiting, diarrhea), hematologic disorders (thrombocytopenia, anemia, neutropenia), general disorders (fatigue and asthenia) and dysgeusia
- dose limiting toxicities (DLTs) ([3]; in vivo): No dose limiting toxicities (DLTs) were observed
- most frequently reported adverse events ([3]; in vivo): hematologic, gastrointestinal and dermatologic
- plasma Cmax and AUC dose dependence [4]: linearly dose-proportional
- binding kinetics (PRMT5/MEP50): slow off-rate binding kinetics
